Experiment [1] concerns M. anisopliae conidia. The experiment can be described thus: Antifungal assays and combinatorial cytotoxicity mapping on conidia. The class given is cell-based, Metarhizium anisopliae. The protocol: This mix was incubated for 18-24 hours at 25° C., then plated onto potato dextrose agar 100×15 mm plates and supplemented with 50 μg/mL ampicillin CFUs were counted following a 4-day incubation at 25° C. Femtoliter changes in conidial cell volume were directly measured by flow cytometry. Samples of M. anisopliae conidia in sodium acetate (0.1M, pH 5.5) were incubated in 384 well plates with samples from HPLC fractions in different combinations (F1+F1, F1+F2, F1+F3 . . . F2+F2, F2+F3 . . . F3+F3 . . . , 10 μL of each fraction) overnight at 25° C. and analyzed by flow cytometry. tGNBP-2 was depleted from 250 μL of each fraction as described above, and supernatants were collected and used for the assay.

For experiment [2], the system named is termite gut symbionts. As to conditions: reference 34; cited from earlier work.
Experiment [3] relates to other β-glucanases. Kind of experiment: β(1,3)-glucanase activity assay, tGNBP-2-depleted termite lysate. Type of experiment: biochemical, N. corniger. The conditions noted are these: tGNBP-2-depleted lysate, FIG. 5C. The protocol:
(§1) FIG. 2 provides results from a microsphere-based flow cytometric assay for β(1,3)-glucanase activity. Laminarin was labeled at the reducing end with rhodamine green X-succinyl ester, stably adsorbed on 3.0μ-diameter polystyrene microspheres in carbonate/bicarbonate buffer at pH=9.6 and washed in 100 mM sodium acetate pH 5.5. Samples were then incubated with the fluorescent microspheres for varying time periods starting from 15 min and analyzed by flow cytometry. Purified β(1,3)-glucanase at 100 μg/mL (0.1 mU/mL) and sodium acetate buffer alone were used as positive and negative controls, respectively. Finally, fluorescence data were transformed to % activity and plotted vs. samples or concentrations. β(1,3)-glucanase activity was measured by a gel electrophoresis assay (39) and by a flow cytometric method developed (FIG. 2). Briefly, samples were run on Carboxymethyl Curdlan REmazol Brilliant Blue (CN-Curdlan-RBB, Lowe Biochemica, Germany). […] Samples were mixed with 1 μL of the microsphere suspension, incubated for 15-30 minutes at 37° C. and analyzed by flow cytometry. Commercially available purified β(1,3)-glucanase from Helix pomatia or Bacilus subtilis was used at 0.1 mU/mL as positive control and results were expressed as % activity of this control.

Experiment [4] has as its system tGNBP-2 expression. The experiment can be described thus: Induction of tGNBP-2 by laminarin challenge on isolated termite cells, Western blot. The conditions noted are these: 20 mM, FIG. 5E. Type of experiment: cell-based, N. corniger. The protocol:
N. corniger workers, large workers or soldiers (whole termites or isolated tissues) were surface sterilized (brief wash with 5% hypochlorite and 3 washes with sterile water) and homogenized in acetate buffer (200 mM, pH 5.0, 4 μL/termite) with Biomasher® columns (pore size 80-145μ, […], San Carlos, Calif.) according to the manufacturer's instructions. Cuticular washes were prepared by gently agitating chilled workers in 0.1% Tween 80 for 5 seconds (10 μL/worker). Wash samples were concentrated with a P10 Microcon® filter (Millipore, Billerica, Mass.). Termite hemocytes were collected from hemolymph drawn from 10 chilled N. corniger workers (1 μL/termite) using a micropipette and kept in ice-cold Burns-Tracy saline as described previously (37). Whole cell preparations were obtained by gentle trituration of termites in ice-cold Burns-Tracy saline. Anti-tGNBP-2 antibodies were raised in rabbits and purified by standard methods (GenScript, Piscataway, N.J.). Antibodies were covalently linked to 1.0μ diameter Dynabeads® MyOneTM carboxylic acid functionalized magnetic beads (Invitrogen) according to the manufacturer's instructions. Fresh termite extract was diluted 1:1 with IP buffer (25 mM Tris-HCl pH 7.6, 150 mM NaCl, 1% v/v NP-40, 1% v/v protease inhibitor cocktail), and incubated with beads for 1 hour at RT. […]
For orientation: A western blot detects proteins with antibodies after separation by electrophoresis.

The test system of experiment [5] is SAPK/JNK signaling in hemocytes. The experiment can be described thus: Intracellular flow cytometry for SAPK/JNK phosphorylation in termite hemocytes. The class given is cell-based, N. corniger. As to the method: N. corniger workers, large workers or soldiers (whole termites or isolated tissues) were surface sterilized (brief wash with 5% hypochlorite and 3 washes with sterile water) and homogenized in acetate buffer (200 mM, pH 5.0, 4 μL/termite) with Biomasher® columns (pore size 80-145μ, […], San Carlos, Calif.) according to the manufacturer's instructions. Cuticular washes were prepared by gently agitating chilled workers in 0.1% Tween 80 for 5 seconds (10 μL/worker). Wash samples were concentrated with a P10 Microcon® filter (Millipore, Billerica, Mass.). Termite hemocytes were collected from hemolymph drawn from 10 chilled N. corniger workers (1 μL/termite) using a micropipette and kept in ice-cold Burns-Tracy saline as described previously (37). Whole cell preparations were obtained by gentle trituration of termites in ice-cold Burns-Tracy saline. Hemocyte staining was performed in 0.1% w/v BSA, 0.01% w/v NaN3 in PBS, 30 min on ice per antibody with a single wash with buffer between antibodies (38). Primary antibodies: anti-tGNBP-2 (5 μg/mL) or rabbit IgG (5 μg/mL, Sigma, St. Louis, Mo.); secondary antibody: anti-rabbit PE (1:400, Invitrogen, Carlsbad, Calif.). […] Flow cytometry was performed on a Beckman-Coulter Cell Lab QuantaTM SC MPL-automated flow cytometer and analyzed with Quanta AnalysisTM software.

The subject of experiment [6] is tGNBP-2. Kind of experiment: β(1,3)-glucanase activity assay (flow cytometric microsphere assay, zymogram). The class given is biochemical, N. corniger. As to conditions: dose/response, FIG. 5C. The protocol:
as §1

Experiment [7] concerns termites infected with M. anisopliae. The experiment can be described thus: In-vivo survival and exposure assays. The arrangement: species or system N. corniger. As to the method:
Conidia (approx. 3×10^7/mL) were centrifuged at 12,000×g for 1 minute and then suspended in 600 μL 0.1% Tween 80 by vortexing. Two groups of 12 large workers were exposed to filter paper (Watman 5) moistened with these suspensions in 35×15 mm petri dishes for 20 hours. The filter paper was replaced with sterile water-moistened filter paper and dead termites were removed after a daily census of survivorship. tGNBP-2 treatment was performed with conidia suspended in a sample of the immunoprecipitated protein overnight at 25° C., followed by extensive washing in PBS containing 0.1% Tween 80. Dead termites were removed daily, surface sterilized with 70% ethanol and incubated in sterile plates at RT for 4 days for post mortem analysis. For exposure to laminarin or LPS, filter papers were moistened with 300 μL of 0.5 mg/mL or 5 mg/mL solutions of either carbohydrate. Termites were kept on moist filter paper for 24 hours prior to exposure with conidia (10^7/mL). Controls included termites that were not exposed to sugars and/or conidia (0.1% Tween 80). Data were analyzed by Mann-Whitney U test and Wilcoxon Signed Rank tests with Bonferroni corrections for multiple testing. Termite survival data were analyzed by Cox Regression Analysis. Flow histogram SDs were calculated using software produced half-peak coefficients of variance (% HPCV×mean). Data are presented as means±SD.

For experiment [8], the system named is tGNBP-2 expression. Kind of experiment: tGNBP-2 expression following exposure of termites to LPS or laminarin. The class given is in vivo, N. corniger. As to conditions: 0.5 or 5 mg/mL, FIG. 4F. The protocol:
Anti-tGNBP-2 antibodies were raised in rabbits and purified by standard methods (GenScript, Piscataway, N.J.). Antibodies were covalently linked to 1.0μ diameter Dynabeads® MyOne™ carboxylic acid functionalized magnetic beads (Invitrogen) according to the manufacturer's instructions. Fresh termite extract was diluted 1:1 with IP buffer (25 mM Tris-HCl pH 7.6, 150 mM NaCl, 1% v/v NP-40, 1% v/v protease inhibitor cocktail), and incubated with beads for 1 hour at RT. Beads were isolated, washed with IP buffer, and eluted with a commercial neutral pH buffer (Pierce, Rockford, Ill.). Eluate was desalted and concentrated using a centrifugal column (Vivaspin 10K, Sartorius, Goettingen, Germany) and reconstituted in sodium acetate (0.1M, pH 5.5). SDS-PAGE and western blots were performed and developed by standard procedures; loading amounts were validated by BCA assay. Anti-tGNBP-2 was used at 2.5 μg/mL followed by anti-rabbit HRP (Cell Signaling) at 1:1000. Blots were visualized on a Kodak ImageStation 2000R. […] Conidia (approx. 3×10^7/mL) were centrifuged at 12,000×g for 1 minute and then suspended in 600 μL 0.1% Tween 80 by vortexing. Two groups of 12 large workers were exposed to filter paper (Watman 5) moistened with these suspensions in 35×15 mm petri dishes for 20 hours. […]

The test system of experiment [9] is tGNBP-2. The experiment can be described thus: In-vitro binding interference assay with FITC-labeled LPS. The arrangement: species or system N. corniger. As to conditions: increasing concentrations, FIG. 5A. The protocol:
Isolated tGNBP-2 or rhCD14 (R&D Systems, Minneapolis, Minn.) were linked to 3.0μ diameter polystyrene beads (Polysciences) by a 3-hour incubation in boric acid (0.1M, pH 8.5) followed by 3 washes in cold PBS containing 0.1% v/v rabbit serum. Formaldehyde-inactivated pathogenic strains were labeled with FITC as previously described (41). Beads were incubated with labeled pathogens in buffer at 37° C. for 30 minutes and analyzed by flow cytometry. For interference assays, tGNBP-2-adsorbed beads were incubated with either LPS or laminarin at various concentrations, then directly stained with FITC-labeled LPS (Sigma) and analyzed by FACS.

Turning to `O=C1O[C@H](CO)[C@@H](O)[C@H](O)[C@H]1O` [GDL, D-δ-gluconolactone], the “direct toxic effect on conidia” value in [1] was “no direct toxic effect”. In addition, the “blocking of gut symbiont pathways for polysaccharide utilization” value in experiment [2] is “not blocked”. Moreover, the “effect on other β-glucanases” value in [3] is listed as “left other β-glucanases intact”. Also, the “induction of tGNBP-2 by laminarin challenge” value in experiment [4] is given as “blocks induction”. The “hemocyte population whose activation is affected” value in [5] (two hemocyte populations expressing tGNBP-2) was “affected only the activation of granular hemocytes”. For the same compound, the “SAPK/JNK phosphorylation activation response of hemocytes” value in [5] (β(1,3)-D-glucan challenge, FIG. 5D) is given as “inhibited this activation response”. Moreover, the “blocking of the β(1,3)-glucanase activity of tGNBP-2” value in experiment [6] was “efficiently blocked”. Further, the “susceptibility to infection with tGNBP-2-treated conidia” value in experiment [7] (conidia treated with isolated tGNBP-2 prior to infection) is listed as “restored susceptibility to infection”. In [7] (no infection), the “mortality of termites in the absence of active infection” value is “caused accelerated mortality”. The “mortality of termites infected with M. anisopliae” value in experiment [7] (treated for 24 hours prior to infection, FIG. 6) is listed as “accelerated mortality”.

For the compound laminarin, in experiment [8], the “tGNBP-2 expression following exposure” value is “significant upregulation”. For the same compound, the “interference with fluorescent LPS binding to bead-linked tGNBP-2” value in experiment [9] is on record as “does not interfere”. In addition, in experiment [7] (termites exposed to 0.5 or 5 mg/mL for 24 hours prior to conidia, FIG. 4E), the “resistance to M. anisopliae infection” value is given as “improved resistance”.

(Values after patent US9006212B2, “Compositions and methods for pest control” (Massachusetts Institute of Technology, priority 2009, dated 2015).)
